Laboratory results published in US20250295732A1, “COMPOSITIONS AND METHODS FOR ACTIVATING INNATE IMMUNITY” (Zoetis Services LLC, priority 2021, published 2025).

System: bovine monocyte-derived macrophages
Test: mRNASeq transcriptome analysis
Assay type: cell-based
Conditions: for Number of significantly differentially expressed genes, P < 0.01 & |log2FC| > 1 / Number of significantly differentially expressed genes, P < 0.05 & |log2FC| > 1 / Number of significantly differentially expressed genes, Padj < 0.05 & |log2FC| > 0.585 / Number of significantly differentially expressed genes, Padj < 0.05 & |log2FC| > 1 / Number of significantly differentially expressed genes, Padj < 0.1 & |log2FC| > 1: CATH2_vs_vehicle
From the text: Peripheral blood mononuclear cells (PBMC) were isolated from bovine blood using ficoll gradients. Bovine monocytes were isolated from PBMC using magnetic assisted cell sorting to positively select for CD14+ cells using anti-human CD14 microbeads (Miltenyi Biotec). Purified bovine blood CD14+ monocytes were differentiated into macrophages using an M2-skewing differentiation factor (recombinant bovine M-CSF) over 7 days then exposed to CATH2 or a vehicle control in the presence of bovine casein to mimic aspects of the mammary gland for 24 hr. Following treatment, vehicle and drug were removed and cells were washed to eliminate residual drug and monocyte-derived macrophages were rested for 3 days in order to assess reprogramming. Following the rest period, a subset of vehicle- and CATH2-trained monocyte-derived macrophages were assessed for epigenetic and transcriptomic changes. The remaining cells were challenged with LPS or E. coli bioparticle labeled with pH-sensitive pHrodo green dye and key parameters for macrophage activation/immune response were assessed including glycolytic activity, surface marker expression, gene expression, cytokine production, phagocytosis, reactive nitrogen species production, and miRNA profiling.
Bovine monocyte-derived macrophages were lysed in Buffer RLT with addition of (3-mercaptoethanol (QIAGEN) and stored at −80° C. until miRNA/mRNA isolations could be performed. Total RNA including miRNA was isolated from cell lysates using the miRNeasy Tissues/Cells Advanced kit (QIAGEN) following the manufacturer's instructions. mRNA and miRNA libraries were prepared using the TruSeq Stranded mRNA Library Prep Kit (Illumina) and QIAseq miRNA Library Kit, respectively (QIAGEN) according to the manufacturer's instructions. Libraries were run on the Illumina NextSeq550 System. Sequencing data were analyzed using CLC Genomics Workbench software and QIAGEN Ingenuity Pathway Analysis (IPA).

[1] = 0 hrs_post_CATH2 (prior to CATH2 treatment)
[2] = 0 hrs_post_LPS (after CATH2 and 3-day rest)

RFGRFLRKIRRFRPKVTITIQGSARFG [CATH2, cathelicidin 2 peptide]
CD14 and CD80 gene expression (RNA sequence data) (8 hr following LPS stimulation, CATH2 vs vehicle): significantly upregulated
Number of significantly differentially expressed genes, P < 0.01 & |log2FC| > 1 [1]: 0
Number of significantly differentially expressed genes, P < 0.05 & |log2FC| > 1 [1]: 0
Number of significantly differentially expressed genes, Padj < 0.05 & |log2FC| > 0.585 [1]: 0
Number of significantly differentially expressed genes, Padj < 0.05 & |log2FC| > 1 [1]: 0
Number of significantly differentially expressed genes, Padj < 0.1 & |log2FC| > 1 [1]: 0
Number of significantly differentially expressed genes, P < 0.01 & |log2FC| > 1 [2]: 169
Number of significantly differentially expressed genes, P < 0.05 & |log2FC| > 1 [2]: 244
Number of significantly differentially expressed genes, Padj < 0.05 & |log2FC| > 0.585 [2]: 171
Number of significantly differentially expressed genes, Padj < 0.05 & |log2FC| > 1 [2]: 96
Number of significantly differentially expressed genes, Padj < 0.1 & |log2FC| > 1 [2]: 134
Number of significantly differentially expressed genes, P < 0.01 & |log2FC| > 1 (8 hrs_post_CATH2): 6
Number of significantly differentially expressed genes, P < 0.05 & |log2FC| > 1 (8 hrs_post_CATH2): 27
Number of significantly differentially expressed genes, Padj < 0.05 & |log2FC| > 0.585 (8 hrs_post_CATH2): 0
Number of significantly differentially expressed genes, Padj < 0.05 & |log2FC| > 1 (8 hrs_post_CATH2): 0
Number of significantly differentially expressed genes, Padj < 0.1 & |log2FC| > 1 (8 hrs_post_CATH2): 0
Number of significantly differentially expressed genes, P < 0.01 & |log2FC| > 1 (8 hrs_post_LPS): 509
Number of significantly differentially expressed genes, P < 0.05 & |log2FC| > 1 (8 hrs_post_LPS): 593
Number of significantly differentially expressed genes, Padj < 0.05 & |log2FC| > 0.585 (8 hrs_post_LPS): 962
Number of significantly differentially expressed genes, Padj < 0.05 & |log2FC| > 1 (8 hrs_post_LPS): 479
Number of significantly differentially expressed genes, Padj < 0.1 & |log2FC| > 1 (8 hrs_post_LPS): 532
Number of significantly differentially expressed genes, P < 0.01 & |log2FC| > 1 (24 hrs_post_CATH2): 11
Number of significantly differentially expressed genes, P < 0.05 & |log2FC| > 1 (24 hrs_post_CATH2): 28
Number of significantly differentially expressed genes, Padj < 0.05 & |log2FC| > 0.585 (24 hrs_post_CATH2): 0
Number of significantly differentially expressed genes, Padj < 0.05 & |log2FC| > 1 (24 hrs_post_CATH2): 0
Number of significantly differentially expressed genes, Padj < 0.1 & |log2FC| > 1 (24 hrs_post_CATH2): 0
Number of significantly differentially expressed genes, P < 0.01 & |log2FC| > 1 (24 hrs_post_LPS): 328
Number of significantly differentially expressed genes, P < 0.05 & |log2FC| > 1 (24 hrs_post_LPS): 393
Number of significantly differentially expressed genes, Padj < 0.05 & |log2FC| > 0.585 (24 hrs_post_LPS): 520
Number of significantly differentially expressed genes, Padj < 0.05 & |log2FC| > 1 (24 hrs_post_LPS): 279
Number of significantly differentially expressed genes, Padj < 0.1 & |log2FC| > 1 (24 hrs_post_LPS): 330
DEG related to Rho family signaling (CATH2 vs vehicle): downregulated
Type I interferon induced genes (e.g. ISG15, MX2, OAS2) (CATH2 vs vehicle): significantly upregulated
Immune response gene expression (IL1A/B, IL6, IL8, IL12, IL23, CCL2, NOS2, IL10) (pre- and post-LPS after CATH2 treatment and 3-day rest, vs vehicle): significantly upregulated
